From article PMC12040169 (PLOS Biology, 2025)

Test: in vitro
Conditions: human, hela cells, % viability

Row | Compound | viability at 28.5 h, 10 µM [%]
1 | CC(=O)N[C@@H](Cc1c[nH]cn1)C(=O)N1CC[C@H]2NC(=O)[C@H](Cc3ccccc3)NC(=O)C3(C/C=C/C[C@H]2C1)CCOCC3 [CBK292206] | 116
2 | O=C(O)CC(NC(=O)c1ccco1)c1ccc(F)cc1 (stereo not drawn) [CBK057988] | 107
3 | CSCCCNC(=O)N(Cc1cccnc1)Cc1ccc2c(c1)OCO2 [CBK159426] | 92.7
4 | O=C(COc1cc(C(=O)O)nc2ccccc12)NCc1ccc(Cl)cc1 [CBK287247] | 92
5 | NC(=O)c1ccc(C(=O)NCC2CN3CCCN2CC3)cc1 (stereo not drawn) [CBK304143] | 114
6 | Cc1c(C(=O)N2CCN(C3CCN(C)CC3)CC2)nnn1-c1cccc(C(F)(F)F)c1 [CBK149088] | 94.2
7 | COCC(=O)N1C2CCC(C2)[C@@H]1COc1ccc(F)cc1 (stereo partly drawn) [CBK284603] | 109
8 | CC(=O)N(C)c1nc(-c2ccccc2)ccc1C(=O)Nc1ccc2c(c1)OCO2 [CBK106342] | 96.8
9 | O=C1CC(N2CCC(c3nc4ccccc4s3)CC2)C(=O)N1Cc1ccccc1 (stereo not drawn) [CBK267438] | 90
10 | CN1CCc2c(sc3c2C(=O)NC(/C=C\c2ccc([N+](=O)[O-])cc2)N3)C1 (stereo not drawn) [CBK262909] | 86.3
11 | O=S(=O)(Nc1ccc2[nH]ncc2c1)c1ccc(Oc2ccccc2)cc1 [CBK062522] | 82.9
12 | O=c1oc2ccc(Cl)cc2n1C1CCN(Cc2ccco2)CC1 [CBK284342] | 102
13 | OCCN1CCN(C(c2cccs2)c2ccc3cccnc3c2O)CC1 (stereo not drawn) [CBK296964] | 76.7
14 | CSc1ncc(Cl)c(C(=O)Nc2sc3c(c2C(=O)NCc2cccnc2)CCC3)n1 [CBK268710] | 95.9
15 | COc1ccc(C(=O)N[C@@H]2CC[C@@]3(c4ccc(OC)c(OC)c4)CCN(C)[C@H]3C2)c(OC)c1 [CBK074247T] | 91.7
16 | Oc1cc(C(F)(F)F)nc(CCc2ccc(Cl)cc2)n1 [CBK003678] | 107
17 | CC1c2ccsc2CCN1C(=O)COc1ccc(Br)cc1 (stereo not drawn) [CBK304999] | 98
18 | COc1ccc(CC(=O)NC2CC(C)(C)Cc3c2cnn3C)cc1 (stereo not drawn) [CBK282886] | 99
19 | CC1(c2ccccc2)CC(=O)N(CCC(=O)O)C1=O (stereo not drawn) [CBK287091] | 83.3
20 | O=C(CSc1nnc(-c2ccc(Cl)cc2Cl)o1)c1ccc2c(c1)OCCO2 [CBK268839] | 113
21 | CCC(NC(=O)c1cc(CC(C)C)nn1CC)c1cn2cccnc2n1 (stereo not drawn) [CBK307505] | 101

Row | Compound | viability at 28.5 h, 10 µM [%]
22 | Cc1csc(C(Cc2cccs2)NC(=O)Cc2ccccn2)n1 (stereo not drawn) [CBK285005] | 94.3
23 | Cc1cc(-c2cn3ccnc3c(NC3CC3)n2)cc(C)c1O [CBK066747] | 86.5
24 | Cc1cc(=O)n(CC(=O)Nc2ccc3c(c2)OCO3)cn1 [CBK287835] | 109
25 | Cc1nc(C2CN(Cc3ccc(Cl)c4cccnc34)CCO2)no1 (stereo not drawn) [CBK305384] | 102
26 | Cc1n[nH]c(C)c1Sc1nnc(O)nc1O [CBK027833] | 87.2
27 | O=S(=O)(O)c1cc(O)c2c(S(=O)(=O)O)cc(S(=O)(=O)O)cc2c1 [CBK278164N] | 94.9
28 | O=C(Cn1cc(-c2ccc(CN3CCCCC3)cc2)nn1)NCc1ccc(C2CCC2)cc1 [CBK167547] | 86.6
29 | Cc1c(C(=O)Nc2ccc(S(=O)(=O)N(C)Cc3ccccc3)cc2)cccc1[N+](=O)[O-] [CBK267534] | 109
30 | CCn1c(COc2c(C)cccc2C)nnc1SCC(=O)N1c2ccccc2Sc2ccccc21 [CBK268103] | 96.4
31 | FC(F)(F)c1ccnc(Sc2nccs2)n1 [CBK093771] | 91.9
32 | CCCc1[nH]n(-c2ccc([N+](=O)[O-])cc2)c(=O)c1/C=N/N1CCN(C)CC1 [CBK262781] | 92.8
33 | N#Cc1ccc(CN2CCN(S(=O)(=O)c3ccc(-c4ccccc4)cc3)CC2)cc1 [CBK062752] | 105
34 | O=C(c1ccncc1)N1CCCn2nc(-c3cccnc3)cc2C1 [CBK288607] | 88.7
35 | O=C(CSc1nc2sc3c(c2c(=O)[nH]1)CCCC3)NCCN1CCOCC1 [CBK264064] | 111
36 | Cc1cc(NC(=O)C(C)N(C)CCOc2ccccc2Cl)no1 (stereo not drawn) [CBK304466] | 107
37 | Cn1c2ccccc2c2nnc(SCCCC(=O)c3ccc4c(c3)OCCO4)nc21 [CBK268750] | 97.5
38 | Cc1ccc(SCCCNCCN(C)C)cc1 [CBK267807C] | 92.2
39 | CCCc1cc(C(=O)N2CCc3sccc3C2C)[nH]n1 (stereo not drawn) [CBK283072] | 101
40 | O=C(Nc1ccccc1N1CCNCC1)c1cccs1 [CBK029443T] | 95.5
41 | O=C(C1=C(O)C(=O)N(Cc2ccncc2)C1c1cccc(OCc2ccccc2)c1)c1cccs1 (stereo not drawn) [CBK266247] | 102
42 | COc1ccc(CCN2CCC(Oc3nccnc3OCCN3C(=O)CCC3=O)CC2)cc1OC [CBK084359] | 109

Row | Compound | viability at 28.5 h, 10 µM [%]
43 | COc1ccccc1-c1cc(Nc2cccc(N(C)C)c2)ncn1 [CBK091011] | 95.5
44 | CC1=C[C@@H](CNS(C)(=O)=O)[C@H](C(C)C)C[C@H]1CC(=O)N1CCOCC1 [CBK289050] | 89.3
45 | COc1nccnc1NS(=O)(=O)c1ccc(Nc2c([N+](=O)[O-])cc([N+](=O)[O-])c3nonc23)cc1 [CBK261441] | 87.5
46 | O=C(O)Cn1nnc(-c2ccc(OCc3ccccc3)cc2)n1 [CBK269755] | 85.1
47 | CC(C)S(=O)(=O)n1ccn(-c2ccc(Oc3ccccc3)cc2)c1=O [CBK106644] | 86.3
48 | CC1CCc2n[nH]c(C(=O)NC3CN4CCC3CC4)c2C1 (stereo not drawn) [CBK283193] | 108
49 | OCCCN1CCC(Oc2cncc(OCCN3CCOCC3)n2)C1 (stereo not drawn) [CBK084494] | 95.9
50 | CCOc1cccc(-c2ccc(N(C)CCN(C)C)nc2)c1 [CBK036904] | 94.8
51 | Cn1nnnc1SCC(=O)Nc1ccc(C(=O)O)cc1 [CBK267442] | 87.3
52 | Cc1ccccc1-c1ccccc1CC1(C(=O)N(C)C)CCN(C(=O)C2CCCCC2)CC1 [CBK285718] | 98.2
53 | O=C(O)CC(Cc1ccc(Cl)cc1)C(=O)Nc1ccccc1I (stereo not drawn) [CBK262021] | 90
54 | COc1cncc(-c2cc(N3CCC(N4CCCCC4)CC3)ncn2)c1 [CBK090964] | 90.3
55 | COc1ccccc1-c1cnc(N)c(NCc2ccccc2)n1 [CBK063357] | 94.3
56 | O=C1c2ccccc2S(=O)(=O)N1CC(O)Cn1ccc2ccccc21 (stereo not drawn) [CBK267905] | 97.6
57 | CC(=O)Nc1ccc(NCc2ncc(C(C)(C)C)o2)c(Cl)c1 [CBK306135] | 98.6
58 | Cc1cc(C)c2c(N)c(C(=O)Nc3ccc(Br)cc3)sc2n1 [CBK072019] | 108
59 | CCCN1CCC(NC(=O)Cn2c(C3CC3)nc3ccccc32)CC1 [CBK304917] | 89.2
60 | Cc1ccc(CCC(=O)Nc2ccc(S(N)(=O)=O)cc2)o1 [CBK269031] | 99.9
61 | N=C1OC2CSCC2N1C(=O)Cc1c(F)cccc1Cl (stereo not drawn) [CBK284517] | 84.9
62 | Cc1cc(C(=O)NCc2ccc(-c3csnn3)cc2)n[nH]1 [CBK149314] | 88.8
63 | O=C(O)c1cc(NCc2ccccc2)ccc1N1CCOCC1 [CBK287099] | 101

Row | Compound | viability at 28.5 h, 10 µM [%]
64 | CC(=O)N1CCc2cc(C(O)CN3CCN(c4nsc5ccccc45)CC3)ccc21 (stereo not drawn) [CBK283092] | 93.3
65 | COc1ccc(OCCNC(=O)c2cc(Br)cnc2N2CCOCC2)cc1 [CBK076214] | 88
66 | CC(C)(C)c1ccc(OCC(O)CNS(=O)(=O)O)cc1 (stereo not drawn) [CBK261169N] | 102
67 | O=C(CCN1C(=O)C2C3CCC(C3)C2C1=O)OCC(=O)c1ccc(Cl)c([N+](=O)[O-])c1 (stereo not drawn) [CBK264124] | 95.2
68 | CC(C)(C)c1cc(NC(=O)Cn2nc(C(=O)O)c3ccccc3c2=O)n(-c2ccccc2)n1 [CBK297557] | 85.1
69 | O=C(CN1CCN(c2ccc(C(F)(F)F)cn2)CC1)c1ccc2c(c1)OCCO2 [CBK074700] | 98.3
70 | COc1cc(OC)cc(C(=O)N2CCC3(CC2)CC(=O)c2c(OC)cc(OC)cc2O3)c1 [CBK164233] | 105
71 | O=C(CCn1c(C(F)F)cc2cccnc21)NCc1cccnc1 [CBK285066] | 91.9
72 | CCn1cc(C(=O)N2CCOC(C(=O)O)C2)c(=O)c2ccc(C)nc21 (stereo not drawn) [CBK307165] | 83.5
73 | CCc1nc2ccc(C(=O)NCCN3CCOCC3)cn2c1N(C)Cc1cc2ccccc2s1 [CBK146561] | 101
74 | O=C1N(c2cccc(Cl)c2)Cc2nc(=O)[nH]n21 [CBK288430] | 85.1
75 | COc1cc(C(=O)NCc2c(-c3ccccc3)noc2C)cc(OC)c1OC [CBK144097] | 93.9
76 | CC(=O)Nc1ccc(CNC(=O)c2ccc(C(F)(F)F)cn2)cc1 [CBK252121] | 92
77 | CC(NC(=O)N1CCN(CCc2ccccc2)CC1)c1ccccc1 (stereo not drawn) [CBK158935] | 85.1
78 | CCCCc1ccc(N)c(C)c1 [CBK164057C] | 89.9
79 | O=C(CCc1c[nH]c2ccccc12)Nc1ccccc1C(=O)O [CBK287242] | 108
80 | CCCN(C(=O)OC(C)(C)C)C1CCc2[nH]c(=O)c(C#N)cc2C1 (stereo not drawn) [CBK023470] | 99.7
81 | Cc1ccc(/N=N/c2c(O)c(C(=O)Nc3ccc4c(c3)c(=O)[nH]c3ccccc34)cc3ccccc23)c(Cl)c1 [CBK262306] | 92.7
82 | CNC(=O)c1ccc(-c2cccc(Cl)c2Cl)nc1N1CCOCC1 [CBK106215] | 109
83 | C=CCOc1ccc(-c2nc3s/c(=C4\C(=O)N(Cc5ccccc5F)c5ccccc54)c(=O)n3n2)cc1 [CBK266615] | 108
84 | O=C(O)CC(C(=O)Nc1ccc(Cl)cc1)C1CCCO1 (stereo not drawn) [CBK264583] | 94.2

Same assay, conditions: human, hela cells, % viability, bulk resorufin, single well

Row | Compound | viability at 28.5 h, 10 µM [%]
85 | Cc1ccc(Cn2nc(C(=O)NCC3COc4ccccc4O3)c3ccccc32)cc1 (stereo not drawn) [CBK047831] | 91.2
86 | C=CCc1cc(/C=C2\C(=O)NC(=O)N(c3ccc4c(c3)OCO4)C2=O)cc(OC)c1OCC(=O)O [CBK264025] | 98.5
87 | COc1cccc2c1OCCC2CNCCCc1ccccc1 (stereo not drawn) [CBK007716] | 91.8
